This note sets out measurements from patent US6710075B2, “Therapeutic compounds and methods” (The Government of the State of Sarawak, Malaysia, priority 2000, dated 2004).

Structures are written as SMILES. Where two headings read alike, the source gives them in different places. Some results are limits rather than exact numbers.

For data set [1], the system named is A549 cells. Kind of data set: Reversibility of cytostatic effect in A549 cells after removal of compound. It is filed as cell-based, human. The following applies: A549, 10 nM for 5 days, then 4 days without compound. The method, then: A549 cells were seeded at ˜10,000 cells/well and cultured in the presence of the indicted concentrations of Compound A or paclitaxel and the viable cell numbers determined by haemocytometer counting of trypan blue stained cells at the various times. On day 5 some of the cells were washed, resuspended in fresh medium lacking the various treatments and cultured for another 4 days prior to counting.
The reversibility of the effects of Compound A was determined. For this, A549 cells remained untreated or were cultured in the presence of various concentrations of Compound A or with paclitaxel for 5 days prior to removal of the compounds and the cells cultured for a further 4 days prior to determining cell number (FIG. 6). […] The effects of treatments which were deleterious to the cells, such as higher concentrations of Compound A or the presence of paclitaxel, were not reversed upon their removal.

Data set [2] has as its system A549. Briefly: Cytostatic activity, relative cell number by YOYO-1 DNA dye. The class given is cell-based, human. The method, then:
(§1) (b) Compound A was assessed for cytotoxic and cytostatic activity against a panel of cell lines derived from a variety of human tumour types in addition to THP-1 and A549 cells (Table 5). These included K562 leukemic cells (Lozzio and Lozzio, 1975, Blood 45:321-34), PC3 prostate tumour cells (Kaighn et al., 1979, Invest. Urol. 17:16-23) and SF268 glioblastoma cells (Westphal et al, 1985, Biochem. Biophys. Res. Commun., 132:284-9). […] However, the cytotoxic potency of Compound A increased dramatically after 6 days of culture for the K562, A549 and SF268 cells.

Data set [3] relates to A549 cells. Briefly: Acute general protein biosynthesis inhibition, [14C] leucine incorporation, A549 cells. The note with it: 1 hour pretreatment + 2 hours label, read-out: IC50 Protein synthesis. The class given is cell-based, human.
The test system of a further data set is SF268. Briefly: Cytotoxic activity, sub-diploid DNA content by flow cytometry (propidium iodide). The class given is cell-based, human. The note with it: Homo sapiens, SF-268, 72 h, SF268, 3 days; read-out: LC50 (3 day cultures). On the procedure:
as §1
On the technique in general: In flow cytometry, cells or beads pass a laser one at a time.

A further data set relates to K562. Described as above. The class given is cell-based, human. On the procedure: as §1
Data set [4] deals with A549. Described as above. The class given is cell-based, human. On the procedure: as §1
For another data set, the system named is PC3. The description is as above. The class given is cell-based, human. The note with it: Homo sapiens. The method, then:
as §1

A further data set deals with THP-1. Described as above. It is filed as cell-based, human. The note with it: Homo sapiens, THP-1, 72 h, THP-1, 3 days; read-out: LC50 (3 day cultures). On the procedure: as §1
Data set [5] relates to PC3 human prostate tumour cells. Briefly: Mouse xenograft tumour model. It is filed as in vivo. The following applies: 3 mg/kg intraperitoneal three times a week. The method, then: Athymic Balb/c nude mice (Rygard and Povisen, 1969, Acta Pathol Microbiol Scand, 77: 758) were inoculated subcutaneously in the dorsal flank with 2×10^6 PC3 cells. Compound A was administered (3 mg/kg) after eight days when the tumours became palpable by intraperitoneal injection three times a week. Compound A was first solubilized in ethanol then mixed 1:1 with cremaphore and diluted in saline for injection. Control animals were treated in an analogous manner with the same vehicle but lacking Compound A. (A) Effect of Compound A on mean tumour volume. Tumour volumes were measured using a micrometer caliper at the indicated times. The data represents mean tumour volume ±SEM (B) Effect of Compound A on mean tumour mass. At the end of the experiment (29 days post inoculation of PC3 cells) the mice were sacrificed, the tumours excised and then weighed. The data represents mean tumour weight ±SEM.
The ability of Compound A to inhibit growth of human tumour cells in vivo was assessed using male athymic mice injected subcutaneously in the dorsal flank region with 2×10^6 PC3 human prostate tumour cells. Compound A administration (3 mg/kg) by intraperitoneal injection commenced after eight days once the PC3 tumour was palpable and continued three times a week until 29 days after the initial inoculation of the tumour cells. At this time all mice were killed and tumours excised and weighed.

Another data set concerns K562 leukemic cells. Kind of data set: DNA content analysis (cell cycle) of K562 leukemic cells. It is filed as cell-based, human. The following applies: K562, 10-15 nM, 3 days. The method, then:
K562 cells were cultured for 3 days with the indicated concentration of Compounds A or B then collected and fixed in 70% ethanol prior to staining with propidium iodide and DNA content determined by flow cytometry. The numbers indicate the % of cells in G0/G1, S and G2/M phases of the cell cycle respectively relative to all cells with ≧2N DNA content.

Data set [6] concerns THP-1 cells. Kind of data set: Acute general protein biosynthesis inhibition, [14C] leucine incorporation, THP-1 cells. The following applies: 1 hour pretreatment + 2 hours label, read-out: IC50 Protein synthesis. It is filed as cell-based, human.
Data set [7] deals with A549 cells. Kind of data set: DNA synthesis, [14C]-thymidine uptake, A549 cells. The class given is cell-based, human. The note with it: Homo sapiens, A549, 72 h. The text has this:
(a) Compounds A and B were identified from a bark sample of Aglaia leptantha through their ability to inhibit production of Tumour Necrosis Factor-α (TNF-α) by THP-1 human promonocytic leukemia cells (Tsuchiya, et al, Int. J. Cancer, 1980, 26(2):171-6) activated with lipopolysaccharide (LPS). Table 4 summarises the results comparing the activity of Compounds A and B for inhibition of TNF-α production to their effects on general cell metabolism measured using WST-1 reduction, DNA synthesis and protein synthesis assays for THP-1 cells. […] For comparison, the effects of Compounds A and B on A549 lung epithelial carcinoma cells (Leiber et al, Int. J. Cancer, 1976, 17(1)-62-70) were also measured and the data is also included in Table 4.

In data set [8] the test system is THP-1 cells. Briefly: DNA content analysis (cell cycle and viability) of THP-1 cells. The class given is cell-based, human. The following applies: THP-1, 10 nM, 2 days. On the procedure:
THP-1 cells were cultured for 2 days with the indicated concentration of Compound A or 1000 nM paclitaxel then collected and fixed in 70% ethanol prior to staining with propidium iodide and DNA content determined by flow cytometry. The numbers indicate the % of cells in the various cell cycle phases relative to all cells with ≧2N DNA content and also the % dead cells (ie. subdiploid≦2N cells) to the left of the marker (the vertical line) that arose during the culture period.

Consider `COC(=O)[C@H]1[C@@H](O)[C@@]2(O)c3c(OC)cc(OC4OC(C(O)CO)COC4OC)cc3O[C@@]2(c2ccc(OC)cc2)[C@@H]1c1ccccc1` (single isomer, unassigned) [Compound A], for which the “cell number after removal of compound” value with A549 cells [1] is on record as “over a five-fold increase in cell number”. For the same molecule, the “population doublings after removal of compound” value with A549 cells [1] is 2-3. Moreover, the GI50 (as a rule, the concentration giving 50% growth inhibition) in the data set with A549 [2] (Homo sapiens, A549, 72 h, read-out: GI50 (3 day cultures), A549, lung) turned out to be 7 nM; in the data set with A549 [2] (read-out: GI50 (3 day cultures), A549, lung) it was 13 nM. Further, the IC50 (in general, the concentration at which inhibition is half-maximal) is 32 nM in the data set with A549 cells [3] (A549 cells); approximately 30 nM in the data set with A549 cells [3] (Homo sapiens, A549, A549 cells); approximately 30 nM with THP-1 cells [6] (Homo sapiens, THP-1, THP-1 cells); 27 nM in the data set with THP-1 cells [6] (THP-1 cells); 7 nM in the data set on A549 cells [7]. In addition, the CC50 is 461 nM in the data set on SF268; more than 1000 nM in the data set with K562 (Homo sapiens, K562, 72 h, K562, 3 days, read-out: LC50 (3 day cultures)); 10 nM in the data set on K562 (Homo sapiens, K562, 144 h, K562, 6 days, read-out: LC50 (6 day cultures)); 12 nM in the data set on K562 (K562, 6 days, read-out: LC50 (6 day cultures)); 15 nM in the data set on A549 [4] (A549, 6 days, read-out: LC50 (6 day cultures)); 914 nM in the data set with A549 [4] (Homo sapiens, A549, 72 h, A549, 3 days, read-out: LC50 (3 day cultures)). Also, the CC50 with A549 [4] (Homo sapiens, A549, 144 h, A549, 6 days, read-out: LC50 (6 day cultures)) turned out to be 21 nM; with PC3 (PC-3, 72 h, PC3, 3 days, read-out: LC50 (3 day cultures)), 18 nM; with PC3 (PC-3, 144 h, PC3, 6 days, read-out: LC50 (6 day cultures)), 12 nM; in the data set with THP-1, 36 nM. In addition, the “reduction of mean tumour weight” value in data set [5] (29 days post inoculation) is listed as approximately 60%. Further, in data set [5] (vs vehicle), the mean tumour volume result is on record as “greatly reduced increase in mean tumour volume”. In addition, the “cell cycle phase accumulation” value is given as “characteristic accumulation of cells in G2/M phases of the cell cycle” in the data set on K562 leukemic cells and “caused cells to accumulate in the G0/G1 phases of the cell cycle” in the data set with THP-1 cells [8]. The “accumulation of dead cells” value in the data set with THP-1 cells [8] (untreated 7%) was 17%.
